In brackets after ≈: the same amount, converted by molar mass. Activity calls are given as the source filed them. The calls are words filed in the database; no cut-off is given here. Bridge positions count the residues as written; N and C are the ends. Square brackets hold non-standard residues; d marks the D form. Peptide text beside a SMILES is read from it. Dab = NCC[C@H](N)C(=O)O
Tests used:
Streptococcus mutans [1] = assay: Antibacterial activity against Streptococcus mutans ATCC 25175 assessed as inhibition of bacterial growth incubated for 18 to 24 hrs; assay type: functional; conditions: time 18-24 hrs
Streptococcus pneumoniae [2] = assay: Antibacterial activity against Streptococcus pneumoniae ATCC 49619 assessed as inhibition of bacterial growth incubated for 18 to 24 hrs; assay type: functional; conditions: time 18-24 hrs
[3] = Binding affinity to AgrC-I extra-loop-II (unknown origin) assessed as change in enthalpy incubated for 10 mins by isothermal titration calorimetry analysis
RAW264.7 [4] = assay: Cytotoxicity against mouse RAW264.7 cells assessed as cell viability incubated for 48 hrs by MTT assay; assay type: functional
[5] = Binding affinity to AgrC-I extra-loop-I (unknown origin) assessed as dissociation constant incubated for 10 mins by isothermal titration calorimetry analysis
Staphylococcus aureus [6] = assay: Inhibition of biofilm formation in Staphylococcus aureus incubated for 24 hrs by crystal violet staining based microscopic analysis; assay type: functional, organism-based
[7] = Inhibition of quorum sensing system in Staphylococcus saprophyticus ATCC BAA-750 assessed as downregulation of RNAIII expression level at 1 to 100 uM incubated for 24 hrs by qRT-PCR analysis; conditions: dose 1-100 µM
RAW264.7 [8] = assay: Cytotoxicity against mouse RAW264.7 cells assessed as cell viability upto 125 uM incubated for 48 hrs by MTT assay; assay type: functional, cell-based
[9] = Binding affinity to AgrC-I extra-loop-III (unknown origin) assessed as dissociation constant incubated for 10 mins by isothermal titration calorimetry analysis
[10] = system: Staphylococcus epidermidis; assay: Antibacterial activity against Staphylococcus epidermidis ATCC 12228 assessed as inhibition of bacterial growth incubated for 18 to 24 hrs; assay type: functional; conditions: time 18-24 hrs
Homo sapiens [11] = species on record: Homo sapiens; assay: Binding affinity to AgrC-I extra-loop-I (unknown origin) assessed as gibbs free energy change incubated for 10 mins by isothermal titration calorimetry analysis
[12] = Binding affinity to AgrC-I extra-loop-III (unknown origin) assessed as change in enthalpy incubated for 10 mins by isothermal titration calorimetry analysis
Staphylococcus aureus [13] = assay: Antivirulence activity against Staphylococcus aureus assessed as downregulation of RNAIII expression level at 1 to 100 uM incubated for 24 hrs by qRT-PCR analysis; assay type: functional, organism-based; conditions: dose 1-100 µM
[14] = Binding affinity to AgrC-I extra-loop-I (unknown origin) assessed as change in enthalpy incubated for 10 mins by isothermal titration calorimetry analysis
Staphylococcus aureus [15] = assay: Antivirulence activity against Staphylococcus aureus assessed as downregulation of psm-alpha expression level at 1 to 100 uM incubated for 24 hrs by qRT-PCR analysis; assay type: functional, organism-based; conditions: dose 1-100 µM
Erythrocyte = assay: Hemolytic activity in rat RBC assessed as hemolysis measured after 20 hrs; assay type: toxicity, cell-based
Staphylococcus aureus [16] = assay: Antibacterial activity against Staphylococcus aureus ATCC 43300 assessed as inhibition of bacterial growth incubated for 18 to 24 hrs; assay type: functional; conditions: time 18-24 hrs
Staphylococcus aureus [17] = assay: Antibacterial activity against Staphylococcus aureus ATCC 6538p assessed as inhibition of bacterial growth incubated for 18 to 24 hrs; assay type: functional; conditions: time 18-24 hrs
Streptococcus mutans [18] = assay: Antibacterial activity against Streptococcus mutans UA159 assessed as inhibition of bacterial growth incubated for 18 to 24 hrs; assay type: functional; conditions: time 18-24 hrs
[19] = system: Staphylococcus saprophyticus; assay: Antibacterial activity against Staphylococcus saprophyticus ATCC BAA-750 assessed as inhibition of bacterial growth incubated for 18 to 24 hrs; assay type: functional; conditions: time 18-24 hrs
[20] = Binding affinity to AgrC-I extra-loop-II (unknown origin) assessed as dissociation constant incubated for 10 mins by isothermal titration calorimetry analysis
Staphylococcus aureus [21] = assay: Inhibition of biofilm formation in Staphylococcus aureus at 0.39 uM incubated for 24 hrs by crystal violet staining based analysis; assay type: functional, organism-based
Homo sapiens [22] = species on record: Homo sapiens; assay: Binding affinity to AgrC-I extra-loop-III (unknown origin) assessed as gibbs free energy change incubated for 10 mins by isothermal titration calorimetry analysis
Staphylococcus aureus [23] = assay: Antibacterial activity against Staphylococcus aureus ATCC 12600 assessed as inhibition of bacterial growth incubated for 18 to 24 hrs; assay type: functional; conditions: time 18-24 hrs
Staphylococcus aureus [24] = assay: Antivirulence activity against Staphylococcus aureus ATCC 6538p assessed as downregulation of RNAIII expression level at 2.5 uM measured for 28 passages by qRT-PCR analysis; assay type: functional, organism-based
Escherichia coli = assay: Antibacterial activity against Escherichia coli ATCC 25922 assessed as inhibition of bacterial growth incubated for 18 to 24 hrs; assay type: functional; conditions: time 18-24 hrs
[25] = Inhibition of quorum sensing system in Staphylococcus aureus ATCC 6538p assessed as downregulation of RNAIII expression level incubated for 24 hrs by qRT-PCR analysis; conditions: dose 1-100 µM
Staphylococcus aureus [26] = assay: Inhibition of biofilm formation in Staphylococcus aureus at 0.78 to 1.56 uM incubated for 24 hrs by crystal violet staining based analysis; assay type: functional, organism-based; conditions: dose 0.78-1.56 µM
Homo sapiens [27] = species on record: Homo sapiens; assay: Binding affinity to AgrC-I extra-loop-II (unknown origin) assessed as gibbs free energy change incubated for 10 mins by isothermal titration calorimetry analysis
Staphylococcus aureus [28] = assay: Bactericidal activity against Staphylococcus aureus assessed as inhibition of bacterial growth at 31.25 uM incubated for 120 mins; assay type: functional, organism-based
[29] = Inhibition of quorum sensing system in Staphylococcus epidermidis ATCC 12228 assessed as downregulation of RNAIII expression level at 1 to 100 uM incubated for 24 hrs by qRT-PCR analysis; conditions: dose 1-100 µM
Staphylococcus aureus [30] = assay: Antivirulence activity against Staphylococcus aureus assessed as downregulation of hla expression level at 1 to 100 uM incubated for 24 hrs by qRT-PCR analysis; assay type: functional, organism-based; conditions: dose 1-100 µM
[31] = system: Staphylococcus epidermidis; assay: Bactericidal activity against Staphylococcus epidermidis ATCC 12228 assessed as inhibition of bacterial growth incubated for 18 to 24 hrs; assay type: functional; conditions: time 18-24 hrs
Streptococcus pneumoniae [32] = assay: Bactericidal activity against Streptococcus pneumoniae ATCC 49619 assessed as inhibition of bacterial growth incubated for 18 to 24 hrs; assay type: functional; conditions: time 18-24 hrs
Cell membrane = assay: Induction of cell membrane damage in Staphylococcus aureus ATCC 6538p assessed as increase in nucleic acid leakage measured up to 30 mins by UV-spectrophotometer analysis; assay type: subcellular
[33] = Toxicity in Kunming mouse infected with Staphylococcus aureus ATCC 6538p assessed as animal survival rate 5 mg/kg, ip pre-infected with bacteria for 1 hr followed by compound administration and measured after 7 days; assay type: organism-based; conditions: in vivo, 168 h, time 7 day
Staphylococcus aureus [34] = assay: Bactericidal activity against Staphylococcus aureus ATCC 43300 assessed as inhibition of bacterial growth incubated for 18 to 24 hrs; assay type: functional; conditions: time 18-24 hrs
Staphylococcus aureus [35] = assay: Bactericidal activity against Staphylococcus aureus ATCC 6538p assessed as inhibition of bacterial growth incubated for 18 to 24 hrs; assay type: functional; conditions: time 18-24 hrs
Staphylococcus aureus [36] = assay: Bactericidal activity against Staphylococcus aureus ATCC 12600 assessed as inhibition of bacterial growth incubated for 18 to 24 hrs; assay type: functional; conditions: time 18-24 hrs
[37] = system: Staphylococcus saprophyticus; assay: Bactericidal activity against Staphylococcus saprophyticus ATCC BAA-750 assessed as inhibition of bacterial growth incubated for 18 to 24 hrs; assay type: functional; conditions: time 18-24 hrs

CC[C@H](C)[C@H](NC(C)=O)C(=O)N[C@@H](CC(N)=O)C(=O)N[C@H]1CCNC(=O)[C@H](CC(C)C)NC(=O)[C@H](CC(C)C)NC(=O)[C@H](Cc2ccccc2)NC(=O)[C@H](C)NC1=O (Ac-IN[Dab]AFLL; lactam 3-C)
MIC (Streptococcus mutans [1]): > 100 µM | MIC (Streptococcus pneumoniae [2]): > 100 µM | deltaH [3]: -52.4 kcal/mol | CC50 (RAW264.7 [4]): > 125 µM | Kd [5]: 1 pM | inhibition (Staphylococcus aureus [6]): Active | inhibition [7]: inactive | Activity (RAW264.7 [8]): inactive | Kd [9]: 0.137 µM | MIC [10]: > 100 µM | deltaG (Homo sapiens [11]): -16.4 kcal/mol | deltaH [12]: 0.085 kcal/mol | Activity (Staphylococcus aureus [13]): Active | deltaH [14]: -1.43 kcal/mol | Activity (Staphylococcus aureus [15]): Active | Activity (Erythrocyte): Toxic | MIC (Staphylococcus aureus [16]): > 100 µM | MIC (Staphylococcus aureus [17]): > 100 µM | MIC (Streptococcus mutans [18]): > 100 µM | MIC [19]: > 100 µM | Kd [20]: 2320 µM | inhibition (Staphylococcus aureus [21]): Active | deltaG (Homo sapiens [22]): -9.36 kcal/mol | MIC (Staphylococcus aureus [23]): > 100 µM | Activity (Staphylococcus aureus [24]): Active | MIC (Escherichia coli): > 100 µM | inhibition [25]: Dose-Dependent Effect | inhibition (Staphylococcus aureus [26]): Active | deltaG (Homo sapiens [27]): -3.6 kcal/mol | Activity (Staphylococcus aureus [28]): inactive | inhibition [29]: inactive | Activity (Staphylococcus aureus [30]): Active

CN[C@H](CC(C)C)C(=O)N[C@H]1C(=O)N[C@@H](CC(N)=O)C(=O)N[C@H]2C(=O)N[C@H]3C(=O)N[C@H](C(=O)N[C@H](C(=O)O)c4cc(O)cc(O)c4-c4cc3ccc4O)[C@H](O)c3ccc(c(Cl)c3)Oc3cc2cc(c3O[C@@H]2O[C@H](CO)[C@@H](O)[C@H](O)[C@H]2O[C@H]2C[C@](C)(N)[C@H](O)[C@H](C)O2)Oc2ccc(cc2Cl)[C@H]1O [VANCOMYCIN]
MIC (Streptococcus mutans [1]): > 100 µM | MIC (Streptococcus pneumoniae [2]): 0.19 µM (≈ 0.275 µg/mL) | MBC [31]: 0.39 µM (≈ 0.565 µg/mL) | MBC (Streptococcus pneumoniae [32]): 0.19 µM (≈ 0.275 µg/mL) | Activity (Cell membrane): inactive | MIC [10]: 0.39 µM (≈ 0.565 µg/mL) | MIC (Staphylococcus aureus [16]): 0.39 µM (≈ 0.565 µg/mL) | MIC (Staphylococcus aureus [17]): 0.39 µM (≈ 0.565 µg/mL) | MIC (Streptococcus mutans [18]): > 100 µM | Activity [33]: 90% | MIC [19]: 0.39 µM (≈ 0.565 µg/mL) | MIC (Staphylococcus aureus [23]): 0.39 µM (≈ 0.565 µg/mL) | MBC (Staphylococcus aureus [34]): 0.39 µM (≈ 0.565 µg/mL) | MIC (Escherichia coli): > 100 µM | MBC (Staphylococcus aureus [35]): 0.39 µM (≈ 0.565 µg/mL) | MBC (Staphylococcus aureus [36]): 0.39 µM (≈ 0.565 µg/mL) | MBC [37]: 0.39 µM (≈ 0.565 µg/mL)

Source: ChEMBL document CHEMBL5376002, “A Hybrid Antimicrobial Peptide Targeting Staphylococcus aureus with a Dual Function of Inhibiting Quorum Sensing Signaling and an Antibacterial Effect” (J Med Chem, 2023)
